Assay results taken from patent US11447638B2, “Acetalanthraquinone derivatives useful for cellular staining” (BIOSTATUS LIMITED, priority 2016, dated 2022).

Tests used:
[1] = test system: fixed human osteosarcoma U-2 OS cells; assay: Labelling of fixed cells, wide-field fluorescence microscopy; type: cell-based; conditions: 20 μM, 1 h exposure in PBS, FIG. 2
Description: Cells were seeded in a 24 well coverslip bottomed-plate, cultured overnight in McCoys media. 24 or 48 hours later the cells were washed gently with 3×2 mL PBS per well. The PBS was removed and 0.5 mL of 4% paraformaldehyde solution [a 4% paraformaldehyde solution in PBS was made fresh each time from a 16% stock solution (Thermo Fisher Scientific)] was added in each well and cells were incubated for 30 min. The paraformaldehyde was removed and cells were washed 3×2 mL PBS per well. 1 mL of PBS or HEPES was added to each well.
Before analysis, cells were incubated at 37° C. in the dark for the period designated. Samples were analysed directly without any further washing step. For live cell labelling cells were seeded, plated in a similar way, into a similar multi-well dish for optimal optical performance and could be used across all microscope platforms.
This basic protocol was the standard for testing the patterns of AAQ agents at 20 μM, compared to 20 μM of DRAQ5 as the benchmark reference (both in terms of cellular location and ability to detect the red fluorescence).
Low resolution wide-field fluorescence microscopy was used to evaluate cell labelling in fixed human osteosarcoma U-2 OS cells. The system was an Axiovert 100 microscope (Carl Zeiss, Welwyn Garden City, UK) ×10 0.3 NA air objective lens and an ORCA-ER CCD camera (Hamamatsu, Reading, UK). Illumination was controlled by a shutter in front of the transmission lamp. Image capture was controlled using Metamorph software. This evaluates the ability of the compounds to label cellular compartments without active uptake or efflux prohibiting delivery into the given cell. Image collection was performed after 1 h of exposure to probes in PBS. The calibration bar represents 50 μm.

U-2 OS cells = assay: Confocal laser scanning microscopy (CLSM) localisation analysis; type: cell-based, human; conditions: 30 min incubation, Ex 637 nm, Em >665 nm; for subcellular localisation by CLSM: FIG. 4 and 5
Procedure, shortened: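 Live U-2 OS cells imaged by confocal microscopy after 30 min incubation with probe compound, excitation 637 nm, emission >665 nm, at several z depths with solution background removed. Sections merged into maximum projections; per-cell nucleus/cytoplasm fluorescence ratio used as index of DNA binding.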

A549 cells = assay: Constant exposure to probes, time-lapse and flow cytometry after 72 h; type: cell-based, human; conditions: within 24 hours
Description: Timelapse imaging, in accordance with Errington R J et al, Time-lapse microscopy approaches to track cell cycle and lineage progression at the single-cell level, Curr Protoc Cytom. 2013 April; Chapter 12: Unit 12.4, was carried out in relation to cells with exposure to probe compounds.
In this regard, A549 cells were seeded in a 24 well coverslip bottomed-plate, cultured overnight in McCoys media for 24 or 48 hours. The plates were placed onto an inverted automated microscope, with the capacity for acquiring an image sequence of different wells (therefore exposure to different agent labelling). An Axiovert 100 microscope (Carl Zeiss, Welwyn Garden City, UK) was fitted with an incubator for 37° C./5% CO2 maintenance (Solent Scientific, Portsmouth, UK), and an ORCA-ER CCD camera (Hamamatsu, Reading, UK). Illumination was controlled by a shutter in front of the transmission lamp, and an x, y positioning stage with separate z-focus (Prior Scientific, Cambridge, UK) controlled multi-field acquisition. Image capture was controlled using Metamorph software.
Cells were exposed to a constant dose (0-5 μM) or a pulsed dose of 0 or 20 μM agent for 15 minutes followed by washout with warmed full media. […]
A549 cell lines were monitored using time-lapse collection and lineage progression, in constant exposure to compounds of the invention. The effects on cells were also determined. […]

MCF7 = assay: MTT cellular viability (growth inhibition) assay, MCF7; type: cell-based; conditions: Homo sapiens, 0.25-100 μM, 72 h, Table 3
Procedure, shortened: (§1)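 Cells seeded at 1×10^4 cells/mL in R10, allowed to adhere overnight at 37 °C, 5% CO2. Compounds tested at 0.25–100 μM for 72 h; MTT read-out gave growth-inhibition IC50.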

A549 = assay: MTT cellular viability (growth inhibition) assay, A549; type: cell-based; conditions: Homo sapiens, 0.25-100 μM, 72 h, Table 3
Procedure, shortened: as §1

Row | SMILES | fluorescence brightness / background in fixed cells [1] | staining pattern in fixed cells [1] | specific feature of localisation by CLSM (U-2 OS cells) | subcellular localisation by CLSM (U-2 OS cells) | localisation of probe during constant exposure (A549 cells) | IC50 (MCF7) | IC50 (A549)
1 | COC(CC(=O)NCCNc1ccc(NCCN(C)C)c2c1C(=O)c1ccccc1C2=O)OC [BST-110, N-(2-(4-(2-(dimethylamino)ethylamino)-9,10-dioxo-9,10-dihydroanthracen-1-ylamino)ethyl)-3,3-dimethoxypropanamide] | very high background fluorescence | cytoplasmic staining and heterogeneity on labelling of mitotic figures | whole cell staining | strong nuclear uptake and perinuclear staining, with possible ER accumulation | predominantly in a membrane compartment of the cytoplasm | 19.5 µM | 22.3 µM
2 | COC(CNC(=O)CCNc1ccc(NCCN(C)C)c2c1C(=O)c1ccccc1C2=O)OC [BST-109, N-(2,2-Dimethoxyethyl)-3-(4-(2-(dimethylamino)ethylamino)-9,10-dioxo-9,10-dihydroanthracen-1-ylamino)propanamide] | – | heterogeneity in cytoplasmic staining and positive spots in the nuclei | whole cell staining | strong nuclear uptake and perinuclear staining, with possible ER accumulation | predominantly in a membrane compartment of the cytoplasm | 15.7 µM | 22.5 µM
